The text below walks through data of US20240300980A1, “HETEROCYCLIC COMPOUNDS AS KRAS INHIBITOR, AND PREPARATION THEREFOR AND USE THEREOF IN TREATMENT” (SHANGHAI KECHOW PHARMA, INC., priority 2021, published 2024).

The first assay concerns AGS cells (KRAS^G12D). Description: Detection of cell proliferation in vitro by MTT/MTS method (cell activity experiment). Type of assay: cell-based. To be noted: AGS cells; MTT/MTS; 3 days of drug treatment; read-out: AGS IC50. The method in brief: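 After 3-day compound exposure (final DMSO 0.5%), viability of AGS (KRAS G12D) cells, plated 1000/well one day before dosing, was measured at 490 nm following 4 h MTT or MTS incubation. IC50 was fitted from dose–effect curves relative to DMSO-treated wells.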
Background: Tetrazolium dyes change colour on reduction, which living cells bring about.
In the case of `CCC1CCc2cc(O)cc(-c3ccc4c(N5C[C@H]6CC[C@@H](C5)N6)nc(OC[C@@]56CCCN5C[C@H](F)C6)nc4c3F)c21` (single isomer, unassigned) [Example 284], the half-maximal inhibitory concentration (IC50) – broadly, the concentration needed to halve the response being measured – is 2200 nM.

Turning to `CCC1CCc2cc(O)cc(-c3ccc4c(N5C[C@H]6CC[C@@H](C5)N6)nc(OC[C@@]56CCCN5C[C@H](F)C6)nc4c3F)c21` (single isomer, unassigned) [Example 285], the IC50 is 7 nM. Turning to `C#Cc1c(F)ccc2cc(O)cc(-c3ccc4c(N5C[C@H]6CC[C@@H](C5)[C@@H]6S(=O)(=O)C(F)(F)F)nc(OC[C@@]56CCCN5C[C@H](F)C6)nc4c3F)c12` [Example 132, 5-ethynyl-6-fluoro-4-(8-fluoro-2-(((2R,7aS)-2-fluorotetrahydro-1H-pyrrolizin-7a(5H)-yl)methoxy)-4-((1R,5S, 8R)-8-((trifluoromethyl)sulfonyl)-3-azabicyclo [3.2.1]octan-3-yl)quinazolin-7-yl) naphthalen-2-ol], the 50% inhibitory concentration (IC50) is over 2500 nM.

The same assay, now with this note: Homo sapiens, AGS, 72 h, AGS cells; MTT/MTS; 3 days of drug treatment; read-out: AGS IC50.
As to `CC1Cc2cc(O)cc(-c3ncc4c(N5C[C@H]6CC[C@@H](C5)N6)nc(OC[C@@]56CCCN5C[C@H](F)C6)nc4c3F)c2C1` (stereo partly drawn) [Example 266, 7-(4-((1R,5S)-3,8-diazabicyclo[3.2.1]octan-3-yl)-8-fluoro-2-(((2R,7aS)-2-fluorotetrahydro-1H-pyrrolizin-7a(5H)-yl)methoxy)pyrido[4,3-d]pyrimidin-7-yl)-2-methyl-2,3-dihydro-1H-inden-5-ol], the half-inhibitory concentration (IC50) was determined as 52 nM. Consider `C#Cc1c(F)ccc2cc(O)cc(-c3ccc4c(N5CC6(CCN6)C5)nc(OC[C@@]56CCCN5C[C@H](F)C6)nc4c3F)c12` [Example 216, 5-ethynyl-6-fluoro-4-(8-fluoro-2-(((2R,7aS)-2-fluorotetrahydro-1H-pyrrolizin-7a(5H)-yl)methoxy)-4-(1,6-diazaspiro[3.3]heptan-6-yl)quinazolin-7-yl)naphthalen-2-ol], for which the IC50 was found to be 3480 nM.

With `Oc1cc(-c2c3c(c4c(N5C[C@H]6CC[C@@H](C5)N6)nc(OC[C@@]56CCCN5C[C@H](F)C6)nc4c2F)CCC3)c2c(F)c(F)ccc2c1` [Example 380, 4-(1-((1R,5S)-3,8-diazabicyclo[3.2.1]octan-3-yl)-5-fluoro-3-(((2R,7aS)-2-fluorotetrahydro-1H-pyrrolizin-7a(5H)-yl)methoxy)-8,9-dihydro-7H-cyclopenta[f]quinazolin-6-yl)-5,6-difluoronaphthalen-2-ol], the IC50 is 95 nM. Same read-out and setting: the same measure for `C#Cc1c(F)ccc2cc(O)cc(-c3ccc4c(N5CC6CCNC6C5)nc(OC[C@@]56CCCN5C[C@H](F)C6)nc4c3F)c12` (stereo partly drawn) [Example 113, 5-ethynyl-6-fluoro-4-(8-fluoro-2-(((2R,7aS)-2-fluorotetrahydro-1H-pyrrolizin-7a(5H)-yl)methoxy)-4-(hexahydropyrrolo[3,4-b]pyrrol-5(1H)-yl)quinazolin-7-yl) naphthalen-2-ol]: over 2500 nM; for `CSC1CCCc2cc(O)cc(-c3ncc4c(N5C[C@H]6CC[C@@H](C5)N6)nc(OC[C@@]56CCCN5C[C@H](F)C6)nc4c3F)c21` (stereo partly drawn) [Example 426, 4-(4-((1R,5S)-3,8-diazabicyclo[3.2.1]octan-3-yl)-8-fluoro-2-(((2R,7aS)-2-fluorotetrahydro-1H-pyrrolizin-7a(5H)-yl)methoxy)pyrido[4,3-d]pyrimidin-7-yl)-5-(methylthio)-5,6,7,8-tetrahydronaphthalen-2-ol]: 15 nM. Same read-out and setting: for `C#Cc1c(F)ccc2cc(O)cc(-c3ccc4c(N5CC6CCC5CN6)nc(OC[C@@]56CCCN5C[C@H](F)C6)nc4c3F)c12` (stereo partly drawn) [Example 108, 4-(4-(2,5-diazabicyclo [2.2.2]octan-2-yl)-8-fluoro-2-(((2R,7aS)-2-fluorotetrahydro-1H-pyrrolizin-7a(5H)-yl)methoxy)quinazolin-7-yl)-5-ethynyl-6-fluoronaphthalen-2-ol] the value was 40.5 nM. The same measure, in the same setting: for `[O-][S+]1CCCc2cc(O)cc(-c3ncc4c(N5C[C@H]6CC[C@@H](C5)N6)nc(OC[C@@]56CCCN5C[C@H](F)C6)nc4c3F)c21` (stereo partly drawn) [Example 251, 8-(4-((1R,5S)-3,8-diazabicyclo[3.2.1]octan-3-yl)-8-fluoro-2-(((2R,7aS)-2-fluorotetrahydro-1H-pyrrolizin-7a(5H)-yl)methoxy)pyrido[4,3-d]pyrimidin-7-yl)-6-hydroxythiochromane 1-oxide] the value was over 2500 nM; for `C#Cc1c(F)ccc2cc(O)cc(-c3ccc4c(N5C[C@H]6CC[C@@H](C5)N6)nc(OC[C@@]56CCCN5C[C@H](F)C6)nc4c3OC3CC3)c12` [Example 327, 4-(4-((1R,5S)-3,8-diazabicyclo[3.2.1]octan-3-yl)-8-cyclopropoxy-2-(((2R,7aS)-2-fluorotetrahydro-1H-pyrrolizin-7a(5H)-yl)methoxy)quinazolin-7-yl)-5-ethynyl-6-fluoronaphthalen-2-ol], 230 nM. Take `Oc1cc(C#Cc2ccc3c(N4C[C@H]5CC[C@@H](C4)N5)nc(OC[C@@]45CCCN4C[C@H](F)C5)nc3c2F)c2ccccc2c1` [Example 363, 4-((4-((1R,5S)-3,8-diazabicyclo[3.2.1]octan-3-yl)-8-fluoro-2-(((2R,7aS)-2-fluorotetrahydro-1H-pyrrolizin-7a(5H)-yl)methoxy)quinazolin-7-yl)ethynyl)naphthalen-2-ol]: the 50% inhibitory concentration (IC50) stood at 753 nM. Take `CCc1ccc2cc(O)cc(-c3ncc4c(N5C[C@H]6CC[C@@H](C5)N6)nc(OC[C@@]56CCCN5C[C@H](F)C6)nc4c3F)n12` [Example 351, 5-(4-((1R,5S)-3,8-diazabicyclo[3.2.1]octan-3-yl)-8-fluoro-2-(((2R,7aS)-2-fluorotetrahydro-1H-pyrrolizin-7a(5H)-yl)methoxy)pyrido[4,3-d]pyrimidin-7-yl)-3-ethylindolizin-7-ol]: the concentration for half-maximal inhibition (IC50) was found to be 30 nM. Regarding `Oc1cc(-c2ccc3c(N4C[C@H]5CC[C@@H](C4)N5)c(C(F)(F)F)c(OC[C@@]45CCCN4C[C@H](F)C5)nc3c2F)c2c(F)c(F)ccc2c1` [Example 187, 4-(4-((1R,5S)-3,8-diazabicyclo[3.2.1]octan-3-yl)-8-fluoro-2-(((2R,7aS)-2-fluorotetrahydro-1H-pyrrolizin-7a(5H)-yl)methoxy)-3-(trifluoromethyl)quinolin-7-yl)-5,6-difluoronaphthalen-2-ol], the 50% inhibitory concentration (IC50) amounted to 1410 nM. As to `C#Cc1c(F)ccc2cc(O)cc(-c3ncc4c(-c5cn(C(=O)CO)cn5)nc(OC[C@@]56CCCN5C[C@H](F)C6)nc4c3F)c12` [Example 88, 1-(4-(7-(8-ethynyl-7-fluoro-3-hydroxynaphthalen-1-yl)-8-fluoro-2-(((2R, 7aS)-2-fluorotetrahydro-1H-pyrrolizin-7a(5H)-yl)methoxy)pyrido[4,3-d]pyrimidin-4-yl)-1H-imidazol-1-yl)-2-hydroxyethan-1-one], the half-maximal inhibitory concentration (IC50) is over 10000 nM. For `CCc1cccc2cc(O)cc(-c3ncc4c(N5C[C@H]6CC[C@@H](C5)O6)nc(OC[C@@]56CCCN5C[C@H](F)C6)nc4c3F)c12` [Example 14, 4-(4-((1R,5S)-8-oxa-3-azabicyclo[3.2.1]octan-3-yl)-8-fluoro-2-(((2R,7aS)-2-fluorotetrahydro-1H-pyrrolizin-7a(5H)-yl)methoxy)pyrido[4,3-d]pyrimidin-7-yl)-5-ethylnaphthalen-2-ol], the concentration for half-maximal inhibition (IC50) is 330 nM. The same measure, in the same setting: for `C#Cc1cc2c(N3C[C@H]4CC[C@@H](C3)N4)nc(OC[C@@]34CCCN3C[C@H](F)C4)nc2c(F)c1-c1cc(O)cc2c1C(C)CCC2` (stereo partly drawn) [Example 374, 4-(4-((1R,5S)-3,8-diazabicyclo[3.2.1]octan-3-yl)-6-ethynyl-8-fluoro-2-(((2R,7aS)-2-fluorotetrahydro-1H-pyrrolizin-7a(5H)-yl)methoxy)quinazolin-7-yl)-5-methyl-5,6,7,8-tetrahydronaphthalen-2-ol] the value was 32 nM; for `C#Cc1c(F)ccc2cc(O)cc(-c3ccc4c(N5CC6CC(C5)N6)nc(OC[C@@]56CCCN5C[C@H](F)C6)nc4c3F)c12` [Example 107, 4-(4-(3,6-diazabicyclo [3.1.1]heptan-3-yl)-8-fluoro-2-(((2R,7aS)-2-fluorotetrahydro-1H-pyrrolizin-7a(5H)-yl)methoxy)quinazolin-7-yl)-5-ethynyl-6-fluoronaphthalen-2-ol], 105 nM. On to `CCC1CCc2cc(O)cc(-c3ccc4c(N5C[C@H]6CC[C@@H](C5)N6)nc(OC[C@@]56CCCN5C[C@H](F)C6)nc4c3F)c21` (stereo partly drawn) [Example 283, 7-(4-((1R,5S)-3,8-diazabicyclo[3.2.1]octan-3-yl)-8-fluoro-2-(((2R,7aS)-2-fluorotetrahydro-1H-pyrrolizin-7a(5H)-yl)methoxy)quinazolin-7-yl)-1-ethyl-2,3-dihydro-1H-inden-5-ol], for which the IC50 was 14 nM. The same measure, in the same setting: for `Oc1cc2c(c(-c3ccc4c(N5C[C@H]6CC[C@@H](C5)N6)nc(OC[C@@]56CCCN5C[C@H](F)C6)nc4c3F)c1)C=CC2` [Example 306, 4-(4-((1R,5S)-3,8-diazabicyclo[3.2.1]octan-3-yl)-8-fluoro-2-(((2R,7aS)-2-fluorotetrahydro-1H-pyrrolizin-7a(5H)-yl)methoxy)quinazolin-7-yl)-1H-inden-6-ol] the value was 366 nM. For the compound `O=S1(=O)[C@@H]2CC[C@H]1CN(c1nc(OC[C@@]34CCCN3C[C@H](F)C4)nc3c(F)c(-c4cc(O)cc5ccc(F)c(F)c45)ccc13)C2` [Example 166, (1R,5S)-3-(7-(7,8-difluoro-3-hydroxynaphthalen-1-yl)-8-fluoro-2-(((2R,7aS)-2-fluorotetrahydro-1H-pyrrolizin-7a(5H)-yl)methoxy)quinazolin-4-yl)-8-thia-3-azabicyclo[3.2.1]octane 8,8-dioxide], the IC50 was over 2500 nM.

With `CCC1CCc2cc(O)cc(C3=C(F)c4nc(OC[C@@]56CCCN5C[C@H](F)C6)nc(N5C[C@H]6CC[C@@H](C5)N6)c4C4=NCCN43)c21` (stereo partly drawn) [Example 408, 7-(10-((1R,5S)-3,8-diazabicyclo[3.2.1]octan-3-yl)-6-fluoro-8-(((2R,7aS)-2-fluorotetrahydro-1H-pyrrolizin-7a(5H)-yl)methoxy)-2,3-dihydroimidazo[1′,2′:1,2]pyrido[4,3-d]pyrimidin-5-yl)-1-ethyl-2,3-dihydro-1H-inden-5-ol], the half-maximal inhibitory concentration (IC50) was determined as 41 nM.
